According to the NIST ThermoML archive (doi:10.1016/j.jct.2014.12.022):
± gives the expanded uncertainty stated by the source.

Key:
[1] = 101.33 kPa, Liquid; for speed of sound: Sing-around technique in a fixed-path interferometer; for mass density: Vibrating tube method
[2] = molar heat capacity at constant pressure; details: 101.33 kPa, Liquid, Small sample (50 mg) DSC

| SMILES | speed of sound ([1]; 293.15 K) | mass density ([1]; 293.15 K) | speed of sound ([1]; 298.15 K) | mass density ([1]; 298.15 K) | speed of sound ([1]; 303.15 K) | mass density ([1]; 303.15 K) | molar heat capacity at constant pressure ([2]; 293.15 K) | molar heat capacity at constant pressure ([2]; 298.15 K) | molar heat capacity at constant pressure ([2]; 303.15 K) |
| --- | --- | --- | --- | --- | --- | --- | --- | --- | --- |
| c1ccccc1 [benzene] | 1322.6 ± 1.5 m/s | 878.89 ± 1 kg/m3 | 1299.4 ± 1.5 m/s | 873.54 ± 1 kg/m3 | 1276.2 ± 1.5 m/s | 868.2 ± 1 kg/m3 | 133.58 ± 2.7 J/K/mol | 135.28 ± 2.7 J/K/mol | 136.58 ± 2.7 J/K/mol |
| CN1CCCC1=O [N-methylpyrrolidone] | 1565.6 ± 1.6 m/s | 1033.3 ± 1 kg/m3 | 1546.1 ± 1.6 m/s | 1028.3 ± 1 kg/m3 | 1527.3 ± 1.6 m/s | 1023.5 ± 1 kg/m3 | 165.44 ± 3.3 J/K/mol | 166.22 ± 3.3 J/K/mol | 166.92 ± 3.3 J/K/mol |
